Where a SMILES comes first, the peptide text is derived from it. The star is where a group is joined. X1 = O=C(O)c1ccc2c(c1)nc(OCCCCCCCCC(=O)*)c1ccncc12
What was measured:
[1] = target: Serine/threonine-protein kinase pim-1 (Homo sapiens) (UniProt P11309); test: Inhibition of human PIM1 assessed as residual activity at 1 uM in presence of 33P-ATP by filter-binding assay relative to control
[2] = target: SRSF protein kinase 1 (Homo sapiens) (UniProt Q96SB4); test: Inhibition of human SRPK1 assessed as residual activity at 1 uM in presence of [33P]ATP by filter binding assay relative to control
[3] = target: Mitogen-activated protein kinase 10 (Homo sapiens) (UniProt P53779); test: Inhibition of human JNK3 assessed as residual activity at 1 uM in presence of [33P]ATP by filter binding assay relative to control
[4] = target: Tyrosine-protein kinase CSK (Homo sapiens) (UniProt P41240); test: Inhibition of human CSK assessed as residual activity at 1 uM in presence of [33P]ATP by filter binding assay relative to control
[5] = target: 3-phosphoinositide-dependent protein kinase 1 (Homo sapiens) (UniProt O15530); test: Inhibition of human PDK1 assessed as residual activity at 1 uM in presence of [33P]ATP by filter binding assay relative to control
[6] = target: Dual specificity protein kinase TTK (Homo sapiens) (UniProt P33981); test: Inhibition of human TTK assessed as residual activity at 1 uM in presence of 33P-ATP by filter-binding assay relative to control
[7] = target: Serine/threonine-protein kinase 16 (Homo sapiens) (UniProt O75716); test: Inhibition of human MPSK1 assessed as residual activity at 1 uM in presence of [33P]ATP by filter binding assay relative to control
[8] = target: Eukaryotic translation initiation factor 2-alpha kinase 3 (Homo sapiens) (UniProt Q9NZJ5); test: Inhibition of human EIF2AK3 assessed as residual activity at 1 uM in presence of 33P-ATP by filter-binding assay relative to control
[9] = target: Serine/threonine-protein kinase SIK3 (Homo sapiens) (UniProt Q9Y2K2); test: Inhibition of human SIK3 assessed as residual activity at 1 uM in presence of [33P]ATP by filter binding assay relative to control
[10] = target: Serine/threonine-protein kinase STK11 (Homo sapiens) (UniProt Q15831); test: Inhibition of human LKB1 assessed as residual activity at 1 uM in presence of [33P]ATP by filter binding assay relative to control
[11] = target: Ephrin type-B receptor 2 (Homo sapiens) (UniProt P29323); test: Inhibition of human EPH-B2 assessed as residual activity at 1 uM in presence of [33P]ATP by filter binding assay relative to control
[12] = target: Protein-tyrosine kinase 6 (Homo sapiens) (UniProt Q13882); test: Inhibition of human BRK assessed as residual activity at 1 uM in presence of 33P-ATP by filter-binding assay relative to control
[13] = target: Serine/threonine-protein kinase SIK2 (Homo sapiens) (UniProt Q9H0K1); test: Inhibition of human SIK2 assessed as residual activity at 1 uM in presence of [33P]ATP by filter binding assay relative to control
[14] = target: Serine/threonine-protein kinase BRSK1 (Homo sapiens) (UniProt Q8TDC3); test: Inhibition of human BRSK1 assessed as residual activity at 1 uM in presence of 33P-ATP by filter-binding assay relative to control
Homo sapiens = organism: Homo sapiens; test: Inhibition of human PKA assessed as residual activity at 1 uM in presence of [33P]ATP by filter binding assay relative to control
[15] = target: CDK2/Cyclin A2 (Homo sapiens) (UniProt P24941+P20248); test: Inhibition of human CDK2/Cyclin A assessed as residual activity at 1 uM in presence of [33P]ATP by filter binding assay relative to control; assay type: protein-complex assay
[16] = target: Casein kinase II subunit alpha (Homo sapiens, UniProt P68400); test: Inhibition of ARC-1504 binding to CK2alpha (unknown origin) (1 to 335 residues) measured after 15 mins by fluorescence anisotropic method
[17] = target: Interleukin-1 receptor-associated kinase 1 (Homo sapiens) (UniProt P51617); test: Inhibition of human IRAK1 assessed as residual activity at 1 uM in presence of [33P]ATP by filter binding assay relative to control
[18] = target: NUAK family SNF1-like kinase 1 (Homo sapiens) (UniProt O60285); test: Inhibition of human NUAK1 assessed as residual activity at 1 uM in presence of [33P]ATP by filter binding assay relative to control
[19] = target: Tau-tubulin kinase 1 (Homo sapiens) (UniProt Q5TCY1); test: Inhibition of human TTBK1 assessed as residual activity at 1 uM in presence of [33P]ATP by filter binding assay relative to control
[20] = target: Aurora kinase A (Homo sapiens) (UniProt O14965); test: Inhibition of human Aurora A assessed as residual activity at 1 uM in presence of [33P]ATP by filter binding assay relative to control
[21] = target: Serine/threonine-protein kinase 33 (Homo sapiens) (UniProt Q9BYT3); test: Inhibition of human STK33 assessed as residual activity at 1 uM in presence of [33P]ATP by filter binding assay relative to control
[22] = target: Serine/threonine-protein kinase BRSK2 (Homo sapiens) (UniProt Q8IWQ3); test: Inhibition of human BRSK2 assessed as residual activity at 1 uM in presence of [33P]ATP by filter binding assay relative to control
[23] = target: Death-associated protein kinase 1 (Homo sapiens) (UniProt P53355); test: Inhibition of human DAPK1 assessed as residual activity at 1 uM in presence of 33P-ATP by filter-binding assay relative to control
[24] = target: Tyrosine-protein kinase ZAP-70 (Homo sapiens) (UniProt P43403); test: Inhibition of human ZAP70 assessed as residual activity at 1 uM in presence of [33P]ATP by filter binding assay relative to control
[25] = target: Homeodomain-interacting protein kinase 3 (Homo sapiens) (UniProt Q9H422); test: Inhibition of human HIPK3 assessed as residual activity at 1 uM in presence of 33P-ATP by filter-binding assay relative to control
[26] = target: Serine/threonine-protein kinase MARK1 (Homo sapiens) (UniProt Q9P0L2); test: Inhibition of human MARK1 assessed as residual activity at 1 uM in presence of [33P]ATP by filter binding assay relative to control
[27] = target: MAP/microtubule affinity-regulating kinase 4 (Homo sapiens) (UniProt Q96L34); test: Inhibition of human MARK4 assessed as residual activity at 1 uM in presence of [33P]ATP by filter binding assay relative to control
[28] = target: Serine/threonine-protein kinase tousled-like 1 (Homo sapiens) (UniProt Q9UKI8); test: Inhibition of human TLK1 assessed as residual activity at 1 uM in presence of 33P-ATP by filter-binding assay relative to control

Chain of Casein kinase II subunit alpha (P68400 whole entry, the tested form may be a part): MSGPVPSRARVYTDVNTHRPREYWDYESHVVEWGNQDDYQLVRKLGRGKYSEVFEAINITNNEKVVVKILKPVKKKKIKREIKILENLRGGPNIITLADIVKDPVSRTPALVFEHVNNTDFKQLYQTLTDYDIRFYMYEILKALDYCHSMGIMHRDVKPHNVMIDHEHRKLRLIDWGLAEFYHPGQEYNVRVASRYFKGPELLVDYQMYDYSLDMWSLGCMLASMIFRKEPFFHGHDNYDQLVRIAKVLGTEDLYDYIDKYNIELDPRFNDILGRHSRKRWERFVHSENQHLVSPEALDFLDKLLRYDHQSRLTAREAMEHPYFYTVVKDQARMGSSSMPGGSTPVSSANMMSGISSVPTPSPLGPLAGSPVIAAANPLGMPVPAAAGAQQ
Chain of Protein-tyrosine kinase 6 (Homo sapiens) (Q13882 whole entry, looked up): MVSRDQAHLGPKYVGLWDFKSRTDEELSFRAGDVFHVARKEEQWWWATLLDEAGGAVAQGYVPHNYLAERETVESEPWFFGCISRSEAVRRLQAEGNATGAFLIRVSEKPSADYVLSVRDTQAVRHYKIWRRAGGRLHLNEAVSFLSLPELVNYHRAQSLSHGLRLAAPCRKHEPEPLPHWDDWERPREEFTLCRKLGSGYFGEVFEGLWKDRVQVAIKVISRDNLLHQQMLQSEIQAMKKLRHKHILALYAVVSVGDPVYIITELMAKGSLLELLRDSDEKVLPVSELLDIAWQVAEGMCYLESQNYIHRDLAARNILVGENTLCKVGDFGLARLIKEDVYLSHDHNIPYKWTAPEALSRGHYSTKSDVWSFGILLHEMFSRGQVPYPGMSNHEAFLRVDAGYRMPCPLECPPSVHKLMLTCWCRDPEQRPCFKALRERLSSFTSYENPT
Chain of MAP/microtubule affinity-regulating kinase 4 (Homo sapiens) (Q96L34 whole entry): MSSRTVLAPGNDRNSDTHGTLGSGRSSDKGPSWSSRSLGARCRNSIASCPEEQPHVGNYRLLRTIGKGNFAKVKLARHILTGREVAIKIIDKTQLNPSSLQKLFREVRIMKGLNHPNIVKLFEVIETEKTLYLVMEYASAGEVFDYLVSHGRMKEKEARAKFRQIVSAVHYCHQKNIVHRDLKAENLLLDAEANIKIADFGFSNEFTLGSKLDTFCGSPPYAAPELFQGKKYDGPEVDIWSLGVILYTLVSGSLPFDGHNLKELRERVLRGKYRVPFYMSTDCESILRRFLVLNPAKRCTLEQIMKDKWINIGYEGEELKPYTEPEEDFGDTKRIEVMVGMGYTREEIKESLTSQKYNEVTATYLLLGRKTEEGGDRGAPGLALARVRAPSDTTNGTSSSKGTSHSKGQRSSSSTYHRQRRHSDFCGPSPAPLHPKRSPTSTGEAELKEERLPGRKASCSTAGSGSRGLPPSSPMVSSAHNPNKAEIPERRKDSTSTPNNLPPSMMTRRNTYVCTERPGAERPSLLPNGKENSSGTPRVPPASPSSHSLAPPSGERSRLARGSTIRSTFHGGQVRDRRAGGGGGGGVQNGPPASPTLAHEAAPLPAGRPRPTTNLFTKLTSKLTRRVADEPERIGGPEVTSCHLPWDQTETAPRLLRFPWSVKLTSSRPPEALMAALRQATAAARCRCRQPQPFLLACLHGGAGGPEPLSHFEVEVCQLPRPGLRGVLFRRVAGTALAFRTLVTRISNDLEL
Chain of 3-phosphoinositide-dependent protein kinase 1 (Homo sapiens) (O15530 whole entry): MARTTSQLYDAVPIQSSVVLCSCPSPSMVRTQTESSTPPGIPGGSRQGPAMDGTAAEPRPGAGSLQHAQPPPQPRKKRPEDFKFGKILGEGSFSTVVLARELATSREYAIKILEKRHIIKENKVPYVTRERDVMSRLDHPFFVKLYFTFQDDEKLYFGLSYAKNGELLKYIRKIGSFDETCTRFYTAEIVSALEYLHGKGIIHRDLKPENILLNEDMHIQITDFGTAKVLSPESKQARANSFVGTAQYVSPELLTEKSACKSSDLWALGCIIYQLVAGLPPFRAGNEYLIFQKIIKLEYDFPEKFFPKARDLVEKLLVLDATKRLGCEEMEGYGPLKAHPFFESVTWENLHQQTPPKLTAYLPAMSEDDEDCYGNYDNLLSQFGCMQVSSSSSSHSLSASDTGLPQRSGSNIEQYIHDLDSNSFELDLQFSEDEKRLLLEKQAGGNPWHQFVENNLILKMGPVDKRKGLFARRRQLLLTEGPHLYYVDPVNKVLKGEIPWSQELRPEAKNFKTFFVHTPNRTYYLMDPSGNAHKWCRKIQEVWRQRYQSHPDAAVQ
Chain of Serine/threonine-protein kinase BRSK1 (Homo sapiens) (Q8TDC3 whole entry): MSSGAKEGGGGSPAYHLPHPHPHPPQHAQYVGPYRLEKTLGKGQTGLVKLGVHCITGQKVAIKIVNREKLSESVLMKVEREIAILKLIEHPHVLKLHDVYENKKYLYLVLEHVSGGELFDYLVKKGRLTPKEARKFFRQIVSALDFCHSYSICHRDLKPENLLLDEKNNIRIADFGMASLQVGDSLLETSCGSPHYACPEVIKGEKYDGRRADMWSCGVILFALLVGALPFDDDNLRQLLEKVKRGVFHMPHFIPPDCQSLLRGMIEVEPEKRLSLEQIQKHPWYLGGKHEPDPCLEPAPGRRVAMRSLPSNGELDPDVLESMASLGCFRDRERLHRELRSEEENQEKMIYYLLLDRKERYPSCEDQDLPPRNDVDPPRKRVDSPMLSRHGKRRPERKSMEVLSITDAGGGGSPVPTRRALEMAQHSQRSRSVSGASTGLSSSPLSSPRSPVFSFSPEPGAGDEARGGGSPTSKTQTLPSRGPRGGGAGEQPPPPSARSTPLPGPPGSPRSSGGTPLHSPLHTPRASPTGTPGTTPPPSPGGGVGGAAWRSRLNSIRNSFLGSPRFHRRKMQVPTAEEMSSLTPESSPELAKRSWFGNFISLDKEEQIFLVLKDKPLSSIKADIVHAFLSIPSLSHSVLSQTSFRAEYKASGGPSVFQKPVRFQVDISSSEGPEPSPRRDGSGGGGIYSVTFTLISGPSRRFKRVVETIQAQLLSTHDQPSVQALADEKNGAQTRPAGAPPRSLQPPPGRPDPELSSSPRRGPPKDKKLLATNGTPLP
Chain of Serine/threonine-protein kinase MARK1 (Homo sapiens) (Q9P0L2 whole entry, looked up): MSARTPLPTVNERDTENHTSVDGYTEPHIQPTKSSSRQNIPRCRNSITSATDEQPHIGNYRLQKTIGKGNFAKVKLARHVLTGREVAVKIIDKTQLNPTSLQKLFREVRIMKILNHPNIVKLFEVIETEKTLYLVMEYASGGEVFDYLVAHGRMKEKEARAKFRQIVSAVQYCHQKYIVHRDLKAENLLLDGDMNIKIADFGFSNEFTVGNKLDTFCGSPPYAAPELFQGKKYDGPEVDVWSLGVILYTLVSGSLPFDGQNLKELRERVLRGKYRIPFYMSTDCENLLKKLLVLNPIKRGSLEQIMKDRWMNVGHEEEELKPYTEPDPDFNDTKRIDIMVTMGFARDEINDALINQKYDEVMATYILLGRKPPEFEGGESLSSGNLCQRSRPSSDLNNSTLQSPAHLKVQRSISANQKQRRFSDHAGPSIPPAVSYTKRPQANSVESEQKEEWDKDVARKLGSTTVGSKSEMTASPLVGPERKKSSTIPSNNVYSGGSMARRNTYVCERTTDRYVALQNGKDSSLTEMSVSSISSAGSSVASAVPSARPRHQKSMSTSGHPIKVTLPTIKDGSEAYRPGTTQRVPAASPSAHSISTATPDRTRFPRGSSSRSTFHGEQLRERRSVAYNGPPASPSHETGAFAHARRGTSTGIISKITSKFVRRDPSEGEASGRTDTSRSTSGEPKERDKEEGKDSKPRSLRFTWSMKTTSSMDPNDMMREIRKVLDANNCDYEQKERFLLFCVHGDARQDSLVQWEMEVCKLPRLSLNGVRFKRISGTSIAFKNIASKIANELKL
Chain of Tau-tubulin kinase 1 (Homo sapiens) (Q5TCY1 whole entry): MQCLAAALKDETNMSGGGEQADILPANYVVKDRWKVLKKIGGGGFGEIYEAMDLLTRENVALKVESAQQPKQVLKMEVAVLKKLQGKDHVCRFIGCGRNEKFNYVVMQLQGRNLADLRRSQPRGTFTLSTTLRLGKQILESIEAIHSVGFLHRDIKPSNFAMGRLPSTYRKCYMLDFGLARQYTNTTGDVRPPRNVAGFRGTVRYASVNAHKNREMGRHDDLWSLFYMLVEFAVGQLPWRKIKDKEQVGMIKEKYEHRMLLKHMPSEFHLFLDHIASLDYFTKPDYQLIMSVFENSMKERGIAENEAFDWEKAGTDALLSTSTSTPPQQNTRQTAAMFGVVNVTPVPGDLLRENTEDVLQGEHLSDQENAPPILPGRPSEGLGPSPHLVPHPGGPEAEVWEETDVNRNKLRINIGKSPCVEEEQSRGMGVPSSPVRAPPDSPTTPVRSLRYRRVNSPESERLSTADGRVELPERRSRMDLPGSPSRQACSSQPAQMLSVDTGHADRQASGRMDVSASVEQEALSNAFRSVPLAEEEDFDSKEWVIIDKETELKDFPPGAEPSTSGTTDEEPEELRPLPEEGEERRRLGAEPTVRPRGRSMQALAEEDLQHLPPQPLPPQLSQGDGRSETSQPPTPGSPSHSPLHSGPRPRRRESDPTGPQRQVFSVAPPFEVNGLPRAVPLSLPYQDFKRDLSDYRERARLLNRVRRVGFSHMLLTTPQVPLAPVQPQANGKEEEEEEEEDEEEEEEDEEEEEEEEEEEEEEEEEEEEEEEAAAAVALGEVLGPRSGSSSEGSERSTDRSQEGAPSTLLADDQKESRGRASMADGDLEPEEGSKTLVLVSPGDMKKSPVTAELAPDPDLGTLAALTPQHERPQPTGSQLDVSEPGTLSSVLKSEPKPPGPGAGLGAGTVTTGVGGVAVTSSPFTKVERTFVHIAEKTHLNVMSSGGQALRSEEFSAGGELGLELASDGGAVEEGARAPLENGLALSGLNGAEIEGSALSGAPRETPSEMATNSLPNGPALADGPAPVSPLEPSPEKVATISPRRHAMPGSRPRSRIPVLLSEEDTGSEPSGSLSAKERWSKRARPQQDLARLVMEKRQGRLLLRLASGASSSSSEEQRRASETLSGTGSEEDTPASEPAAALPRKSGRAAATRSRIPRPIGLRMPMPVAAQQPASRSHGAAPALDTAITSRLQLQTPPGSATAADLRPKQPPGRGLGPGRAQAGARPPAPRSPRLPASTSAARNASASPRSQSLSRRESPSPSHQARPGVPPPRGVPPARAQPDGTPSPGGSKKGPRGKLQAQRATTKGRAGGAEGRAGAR

NCCCC[C@H](NC(=O)[C@H](CC(=O)O)NC(=O)[C@H](CC(=O)O)NC(=O)[C@H](CC(=O)O)NC(=O)[C@H](CC(=O)O)NC(=O)[C@H](CC(=O)O)NC(=O)[C@H](CC(=O)O)NC(=O)CCCCCCCCOc1nc2cc(C(=O)O)ccc2c2cnccc12)C(=O)O (X1-DDDDDDK-OH) gave an Activity [1] of 64%, an Activity [2] of 86% and an Activity [3] of 94%. It also gave an Activity [4] of 77%, an Activity [5] of 84% and an Activity [6] of 48%. The Activity [7] was 118%, the Activity [8] was 47% and the Activity [9] was 90%. The Activity [10] was 83%, the Activity [11] was 96% and the Activity [12] was 51%. For the same molecule, the Activity [13] was 99%, the Activity [14] was 63% and the Activity (Homo sapiens) was 94%. It also gave an Activity [15] of 82%, a Kd ([16]; read-out: Kd) of 0.037 nM and a Kd ([16]; read-out: pKd (converted)) of 0.0316 nM. It also gave an Activity [17] of 97%, an Activity [18] of 75% and an Activity [19] of 97%. The Activity [20] was 97%, the Activity [21] was 83% and the Activity [22] was 91%. It also gave an Activity [23] of 50%, an Activity [24] of 103% and an Activity [25] of 8%. It also gave an Activity [26] of 79%, an Activity [27] of 91% and an Activity [28] of 63%.

— ChEMBL document CHEMBL4049403, “Oligo-aspartic acid conjugates with benzo[c][2,6]naphthyridine-8-carboxylic acid scaffold as picomolar inhibitors of CK2” (Bioorg Med Chem, 2017)
